Results taken from US9265189B2, “Method for reducing damage by harmful organisms in corn cultivation” (SUMITOMO CHEMICAL COMPANY, LIMITED, priority 2012, dated 2016).

Assays:
Format in all cases: in vivo
Rhopalosiphum padi = assay: Green house cup test, furrow drip treatment, Rhopalosiphum padi on corn (Example 6); settings: insects released 10 days after seeding, counted 7 days after insect releasing, 100×(A−B)/A
Experimental: A plastic cup (diameter 7 cm) having a volume of 390 ml was filled with a soil, a furrow was formed to a depth of 3 cm from the soil surface, the formed furrow was drip-treated with each of water-diluted liquids of a thiamethoxam water soluble powder (using a 10.0% preparation, trade name: Actara Water Soluble Powder, manufactured by Syngenta Japan K.K.), an imidacloprid water dispersible granule (using a 50.0% preparation, trade name: Admire Water dispersible Granule, manufactured by Bayer CropScience K.K.) and a thiacloprid water dispersible granule (using a 30.0% preparation, trade name: Bariard Water Dispersible Granule, manufactured by Bayer CropScience K.K.) so as to achieve the application amount described in Table 6, and then seeded with corn (variety name: Pioneer 32K61, hybrid variety) at a rate of one grain per cup, and the soil on the side of the furrow was gathered together to close the furrow. Corn was grown in a usual green house.
10 days after seeding of corn, 10 insects of Rhopalosiphum padi were released in each cup. This is called a treatment section.
On the other hand, except that a chemical was not applied, corn was grown in a usual green house in the same manner as in the treatment section, and 10 insects of Rhopalosiphum padi were released. This is called a non-chemical-treatment section.
7 days after insect releasing, the number of Rhopalosiphum padi was investigated, and a preventive value was calculated using the following equation. The results are shown in Table 6. preventive value=100×(A−B)/A
A: number of insects during investigation of non-chemical-treatment section
B: number of insects during investigation of treatment section

[1] = system: Diabrotica virgifera virgifera and Agriotes lineatus; assay: Field test, lodge rate, imidacloprid and cyprosulfamide in-furrow (Example 10); settings: imidacloprid 120 g/ha together with cyprosulfamide 15 g/ha in-furrow spray 125 L/ha, thiuram-treated seed, 165 days after application; example in present tense
Excerpt: A chemical fertilizer (N:P:K=15:15:15) is applied to the soil surface of a cultivated land at 300 kg/ha, and the cultivated land is then plowed. 7 days after fertilization, for suppressing generation of weeds, the soil surface of the whole cultivated land is spray-treated with a mixed liquid containing thiencarbazone-methyl and isoxaflutole, each of which being a herbicide, at 150 L/ha so that the application amounts of thiencarbazone-methyl and isoxaflutole are 9.2 g/ha and 23 g/ha, respectively. 21 days after fertilization, using a pneumatic seeder (disk furrow opener) equipped with a power sprayer, a cultivated land is ditched at intervals of 75 cm to a depth of 3 cm from the soil surface, and the furrow is seeded with corn (Zea Mays; hybrid variety). The furrow is seeded at intervals of 20 cm using, as a seed of corn, one treated with thiuram. A seeding density of corn is 70000 seeds/ha. […] 165 days after application of the aqueous suspension of imidacloprid, the number of plants of corn lodged due to damage by Diabrotica virgifera virgifera and Agriotes lineatus in the furrows of the treatment section and the non-treatment section, for which the number of plants of corn germinated is investigated, is investigated, a lodge rate is calculated in accordance with the following equation, and then an average lodge rate for the four investigation sections is determined.

[2] = system: Diabrotica virgifera virgifera and Agriotes lineatus; assay: Field test, lodge rate, imidacloprid in-furrow, herbicides plus cyprosulfamide on soil (Example 8); settings: imidacloprid 120 g/ha in-furrow spray 125 L/ha, thiuram-treated seed, 165 days after application; example in present tense
Excerpt: A chemical fertilizer (N:P:K=15:15:15) is applied to the soil surface of a cultivated land at 300 kg/ha, and the cultivated land is then plowed. 7 days after fertilization, for suppressing generation of weeds, the soil surface of the whole cultivated land is spray-treated with a mixed liquid containing thiencarbazone-methyl and isoxaflutole, each of which being a herbicide, and cyprosulfamide which is a safener at 150 L/ha so that the application amounts of thiencarbazone-methyl, isoxaflutole and cyprosulfamide are 9.2 g/ha, 23 g/ha and 15 g/ha, respectively. 21 days after fertilization, using a pneumatic seeder (disk furrow opener) equipped with a power sprayer, a cultivated land is ditched at intervals of 75 cm to a depth of 3 cm from the soil surface, and the furrow is seeded with corn (Zea Mays; hybrid variety). […] 165 days after application of the aqueous suspension of imidacloprid, the number of plants of corn lodged due to damage by Diabrotica virgifera virgifera and Agriotes lineatus in the furrows of the treatment section and the non-treatment section, for which the number of plants of corn germinated is investigated, is investigated, a lodge rate is calculated in accordance with the following equation, and then an average lodge rate for the four investigation sections is determined.

SMILES | Preventive value (Rhopalosiphum padi; application amount 20 g/ha) | Preventive value (Rhopalosiphum padi; application amount 200 g/ha) | Lodge rate compared to non-treatment section [1] | Lodge rate compared to non-treatment section [2]
O=[N+]([O-])NC1=NCCN1Cc1ccc(Cl)nc1 [Imidacloprid] | 100 | 100 | low lodge rate as compared to the non-treatment section | low lodge rate as compared to the non-treatment section
N#C/N=C1\SCCN1Cc1ccc(Cl)nc1 [Thiacloprid] | 100 | 100 |  | 
CN1COCN(Cc2cnc(Cl)s2)/C1=N\[N+](=O)[O-] [Thiamethoxam] | 100 | 100 |  | 
